Data reported in US8703961B2, “Thiazole derivatives for the treatment of diseases such as cancer” (Merck Patent GmbH, priority 2009, dated 2014).

What was measured:
TBK1 = molecular target: T1, TBK1 (Homo sapiens, UniProt Q9UHD2); experiment: filter binding kinase assay; type: biochemical; details: derived from % inhibition at 1 μM
T1 construct: purchased
T1 sequence (Q9UHD2 1-729): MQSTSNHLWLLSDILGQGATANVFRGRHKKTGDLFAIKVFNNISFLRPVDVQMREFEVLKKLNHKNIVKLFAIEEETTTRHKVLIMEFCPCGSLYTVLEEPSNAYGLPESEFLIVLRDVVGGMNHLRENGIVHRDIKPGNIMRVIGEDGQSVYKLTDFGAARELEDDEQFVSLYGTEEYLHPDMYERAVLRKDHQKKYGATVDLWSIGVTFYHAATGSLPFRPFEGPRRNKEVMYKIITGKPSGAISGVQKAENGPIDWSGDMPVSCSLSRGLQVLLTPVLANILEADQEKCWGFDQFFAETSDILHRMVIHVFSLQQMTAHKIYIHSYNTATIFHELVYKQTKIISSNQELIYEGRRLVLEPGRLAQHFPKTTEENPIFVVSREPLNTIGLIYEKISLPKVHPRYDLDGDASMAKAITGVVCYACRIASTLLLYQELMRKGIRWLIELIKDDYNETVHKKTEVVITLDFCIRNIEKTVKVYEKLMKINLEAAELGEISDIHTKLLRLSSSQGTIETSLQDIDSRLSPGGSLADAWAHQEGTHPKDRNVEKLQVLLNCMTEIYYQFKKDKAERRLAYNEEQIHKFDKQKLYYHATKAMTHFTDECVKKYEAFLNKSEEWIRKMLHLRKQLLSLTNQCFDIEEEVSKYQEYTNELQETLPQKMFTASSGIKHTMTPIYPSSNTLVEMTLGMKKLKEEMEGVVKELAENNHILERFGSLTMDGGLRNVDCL
Protocol: All kinase assays were carried out using the Multidrop 384 from Thermo-Fisher at room temperature in a total assay volume of 25.5 μl. 15 μl of an enzyme mix comprising enzyme and substrate in buffer are added to the test batch comprising either 0.5 μl of test substance, DMSO control or empty container. Test substances are pre-incubated in the presence of the enzyme and substrate for 5 minutes before the reaction is initiated by addition of 10 μl of ATP (concentration kinase-dependent of […]). The reaction is terminated by addition of 5 μl of orthophosphoric acid (50 mM). The test containers are then transferred onto P81 Unifilter plates by means of a “Packard Harvester” and dried in air. The dry Unifilter plates are sealed after the addition of MicroScint O, and the radioactivity is determined in a Packard Topcount NXT.

| melting point [°C] | IC50 (TBK1) [nM] | SMILES |
| --- | --- | --- |
| 139 to 144 | – | CC(C)(C)OC(=O)Nc1ncsc1C#Cc1ccc(F)cc1 [Compound A15, tert-butyl N-{5-[2-(4-fluorophenyl)ethynyl]-1,3-thiazol-4-yl}carbamate] |
| – | 10 to 1000 | Nc1ncc(-c2cnn(C3CCNCC3)c2)cc1-c1nc2[nH]c(-c3ccc(F)cc3)cc2s1 [Compound A31] |
